This series can be described thus: Pharmacokinetics in C57BL/6 mice (i.v. and oral). To be noted: for AUC(0-inf) / Vd / clearance / half-life / Cmax / Tmax: male, C57BL/6, mouse. The procedure: Blood concentration versus time profiles were obtained from 2 groups of 3 male mice. The compound was administered intravenously (i.v.) by bolus injection (5 mL/kg) at a dose of 1 mg/kg in N-methyl-2-pyrrolidone (10%) and 4% bovine serum albumins (BSA) in phosphate-buffered saline (PBS) (90%) or orally administered at a dose of 3 mg/kg (10 mL/kg) as a homogenous suspension of Water (99.4%), Tween 80 (0.1%) and methylcellulose (0.5%). Following compound administration, blood (10 μL/time point) were collected by puncture of the tail vein into ethylenediaminetetraacetic (EDTA)-coated tubes, at 0.083 (i.v. only), 0.25, 0.5, 1, 3, 7, & 24 hours post dose.
Bioanalysis: An aliquot of 10 μL of blood sample and matrix calibration standards were added to a 96-well plate. The samples were extracted using a protein precipitation procedure with addition of 80 μL acetonitrile containing internal standard. The samples were vortexed and centrifuged at 3000 rpm for 5 minutes. A 70 μL aliquot of supernatant was transferred to a clean 96-well plate and a 70 μL of water was added to each well and vortexed. Samples were analyzed and quantified by LC-MS/MS using the conditions outlined below.
• Mass Spectrometer: AP16500+ • Liquid Chromatograph: Agilent 1290 for Compound 3; Shimadzu LC30 AD for Compound 5 • Autosampler (ALS): Agilent 1290 for Compound 3; Shimadzu SIL30AC for Compound 5
• LC Column Acquity BEH C18, 50×2.1 mm, 1.7 μm • Solvent A: • 5:95:0.1 (v:v:v) Acetonitrile:Water:Formic Acid for Compound 3 • 100:0.1 (v:v) Water:Formic acid for Compound 5 • Solvent B: • 50:50:0.1 (v:v:v) Acetonitrile:Methanol:Formic Acid for Compound 3 • 100:0.1 (v:v) Acetonitrile:Formic acid for Compound 5 • Injection Volume [μL]: 1 for Compound 5; 20 for Compound 3 • Column Oven Temp. [° C.]: 50 Compound 3; 40 for Compound 5 • ALS Temp. [° C.]: 5
• Ion Source: TIS • Polarity: Positive • Temperature: 550 • Gas 1: 55 • Gas 2: 55 • Curtain Gas: 20 • Ion Spray Voltage [V]: 5500 for Compound 5; 4500 for Compound 3 • CAD Gas: 9

The term AUC(0-inf) denotes the area under the concentration-time curve extrapolated to infinity. A high value points to high exposure. One may read the half-life as the time in which the quantity being followed falls by half. One may read the Cmax as the maximum level reached in the sampled fluid or tissue. The term Tmax denotes the time at which the peak concentration occurs. For the compound `Cc1nc(CN2CCC(c3cccc4c3O[C@@](C)(c3ccc(Cl)cc3F)O4)CC2)n(C[C@@H]2CCO2)c1/C=C/C(=O)O` [Compound 5], for the setting “whole blood, iv, 1 mg/kg”, the AUC(0-inf) was 5.02 ± 0.629 µM·h, the Vd came to 0.604 ± 0.02 L/kg, the clearance was found to be 5.76 ± 0.711 mL/min/kg and the half-life is 1.42 ± 0.121 h. Moreover, for the setting “whole blood, po, 3 mg/kg”, the AUC(0-inf) stood at 7.91 ± 0.764 µM·h, the Cmax stood at 1060 ± 450 nM, the Tmax is 1 h and the half-life is 2.82 ± 0.74 h.
Under “male C57BL/6 mice, 3 mg/kg oral dose vs 1 mg/kg i.v.”, `Cc1nc(CN2CCC(c3cccc4c3O[C@@](C)(c3ccc(Cl)cc3F)O4)CC2)n(C[C@@H]2CCO2)c1C(=O)O` [Compound 3] showed a BAV of 50.1 ± 19.4%. Further, under “in vivo, iv, 1 mg/kg”, the AUC(0-inf) was 2.79 ± 1.35 µM·h, the Vd came to 0.903 ± 0.282 L/kg, the clearance stood at 12.3 ± 4.78 mL/min/kg and the half-life is 1.28 ± 0.223 h. Also, where the note is “in vivo, po, 3 mg/kg”, the AUC(0-inf) came out at 3.74 ± 0.641 µM·h, the Cmax was determined as 1470 ± 354 nM, the Tmax stood at 0.667 ± 0.289 h and the half-life was 1.84 ± 0.8 h.

(Values after patent publication US20240182456A1, “2-((4-((S)-2-(4-CHLORO-2-FLUOROPHENYL)-2-METHYLBENZO[D][1,3]DIOXOL-4-YL)PIPERIDIN-1-YL)METHYL)-1-(((S)-OXETAN-2-YL)METHYL)-1H-IMIDAZOLE DERIVATIVES AS ACTIVATORS OF THE GLP1 RECEPTOR FOR THE TREATMENT OF OBESITY” (Novartis AG, priority 2021, published 2024).)
